This assay concerns the target T1, PSZ-1 (AmpC β-lactamase).
T1 construct: gene blaPSZ-1; recombinant PSZ-1 from pCold I in E. coli BL21, His-tag removed with thrombin
The assay is described as follows: inhibition of nitrocefin hydrolysis, […] min preincubation, […]°C. In kind it is biochemical, Pantoea endophytica.

A word on the IC50: it is the concentration that inhibits the measured activity by half. The low end stands for greater potency in that assay, the high end for weaker potency in that assay. Take `NC(=O)[C@@H]1CC[C@@H]2CN1C(=O)N2OS(=O)(=O)O` [avibactam]: half-maximal inhibition (IC50) was put at 0.0555 µM.
As for `C[C@]1(Cn2ccnn2)[C@H](C(=O)O)N2C(=O)C[C@H]2S1(=O)=O` [tazobactam], half-maximal inhibition (IC50) was put at 7.96 µM.

(Values after paper PMC10389763, “BlaPSZ-1, a novel AmpC gene identified from a Pantoea isolate” (Frontiers in Microbiology, 2023).)
